Assay results: US20250319140A1, “COMPOSITION” (MEIJI CO., LTD., priority 2019, published 2025)

Columns and labels:
[1] = Weight gain suppressing effect in mice fed a high fat diet (body weight, weight gain, fat weight around the testes); format: in vivo; conditions: male C57BL/6J mice, compared with control group
Protocol: Male, 8-week-old C57BL/6J mice were divided into 5 groups and fed with a normal diet (AIN-93M) (manufactured by Oriental Yeast Co., Ltd.) or a high fat diet (HFD-60) (manufactured by Oriental Yeast Co., Ltd.). The groups fed with a high fat diet were administered with fructo-oligosaccharide (hereinafter, also referred to as “FOS”), a propionic acid bacterium (Propionibacterium freudenreichii ET-3, Accession No. FERM BP-8115, hereinafter also referred to as “P bacterium”), or both FOS and a propionic acid bacterium (hereinafter, also referred to as “FOS+P bacterium”), and bred for 8 weeks. The group fed with the high fat diet, but not administered with FOS and a propionic acid bacterium was defined as a control group. Meioligo™ P (manufactured by Meiji Food Materia Co., Ltd.) was used as FOS, which was incorporated in the high fat diet in an amount of 5% by mass, and administered. A bacterial solution (living cells) activated and cultured in GAM bouillon (manufactured by Nissui Pharmaceutical Co., Ltd.) was washed with physiological saline, and then the number of propionic acid bacteria was adjusted to 5×10^9 cfu/mL to prepare a propionic acid bacterium. This bacterial solution was forcibly administered orally at a dose of 0.2 mL once daily every day from the start date to the end date of the test. To the groups not administered with the propionic acid bacterium (normal diet group, control group and FOS-administered group), physiological saline was forcibly administered orally at a dose of 0.2 mL once daily every day from the start date to the end date of the test. The body weight during the test period, the fat weight around the testes at the time of dissection, and the propionic acid concentration in feces collected at the end day of the test were measured, and the amount of weight gain was calculated from the body weights at the start and end of the test, and used for evaluation.

[2] = system: propionic acid production in the intestine; test: Propionic acid concentration in feces of high fat diet-fed mice, measured by HPLC; format: in vivo; conditions: male C57BL/6J mice, feces collected at the end day of the test, compared with control group, P <0.05 paired t-test for the combination
Protocol: Male, 8-week-old C57BL/6J mice were divided into 5 groups and fed with a normal diet (AIN-93M) (manufactured by Oriental Yeast Co., Ltd.) or a high fat diet (HFD-60) (manufactured by Oriental Yeast Co., Ltd.). The groups fed with a high fat diet were administered with fructo-oligosaccharide (hereinafter, also referred to as “FOS”), a propionic acid bacterium (Propionibacterium freudenreichii ET-3, Accession No. FERM BP-8115, hereinafter also referred to as “P bacterium”), or both FOS and a propionic acid bacterium (hereinafter, also referred to as “FOS+P bacterium”), and bred for 8 weeks. The group fed with the high fat diet, but not administered with FOS and a propionic acid bacterium was defined as a control group. Meioligo™ P (manufactured by Meiji Food Materia Co., Ltd.) was used as FOS, which was incorporated in the high fat diet in an amount of 5% by mass, and administered. […] The body weight during the test period, the fat weight around the testes at the time of dissection, and the propionic acid concentration in feces collected at the end day of the test were measured, and the amount of weight gain was calculated from the body weights at the start and end of the test, and used for evaluation.
The propionic acid concentration in the feces was measured by HPLC after extracting the propionic acid from the feces. […]

Propionibacterium freudenreichii ET-3 [propionic acid bacterium]
body weight ([1]; high fat diet (HFD-60), from the 6th week on of 8 weeks breeding): lower in the propionic acid bacterium-administered group than those in the control group | fat weight around the testes ([1]; high fat diet, at dissection at end of 8-week test): low | amount of weight gain ([1]; high fat diet, end day of the test (8 weeks) relative to initial body weight): low | propionic acid concentration in the feces [2]: clearly higher than that in the control group
